Assays:
human TLR7 = target: T1, human TLR7 (Homo sapiens, UniProt Q9NYK1); assay: TLR7 inhibition reporter assay (HEK-Blue cells, SEAP reporter, gardiquimod stimulation); type: cell-based; conditions: HEK-Blue cells overexpressing human TLR7, gardiquimod 7.5 μM
T1 construct: host or cells: HEK-Blue cells
T1 sequence (Q9NYK1 27-1049): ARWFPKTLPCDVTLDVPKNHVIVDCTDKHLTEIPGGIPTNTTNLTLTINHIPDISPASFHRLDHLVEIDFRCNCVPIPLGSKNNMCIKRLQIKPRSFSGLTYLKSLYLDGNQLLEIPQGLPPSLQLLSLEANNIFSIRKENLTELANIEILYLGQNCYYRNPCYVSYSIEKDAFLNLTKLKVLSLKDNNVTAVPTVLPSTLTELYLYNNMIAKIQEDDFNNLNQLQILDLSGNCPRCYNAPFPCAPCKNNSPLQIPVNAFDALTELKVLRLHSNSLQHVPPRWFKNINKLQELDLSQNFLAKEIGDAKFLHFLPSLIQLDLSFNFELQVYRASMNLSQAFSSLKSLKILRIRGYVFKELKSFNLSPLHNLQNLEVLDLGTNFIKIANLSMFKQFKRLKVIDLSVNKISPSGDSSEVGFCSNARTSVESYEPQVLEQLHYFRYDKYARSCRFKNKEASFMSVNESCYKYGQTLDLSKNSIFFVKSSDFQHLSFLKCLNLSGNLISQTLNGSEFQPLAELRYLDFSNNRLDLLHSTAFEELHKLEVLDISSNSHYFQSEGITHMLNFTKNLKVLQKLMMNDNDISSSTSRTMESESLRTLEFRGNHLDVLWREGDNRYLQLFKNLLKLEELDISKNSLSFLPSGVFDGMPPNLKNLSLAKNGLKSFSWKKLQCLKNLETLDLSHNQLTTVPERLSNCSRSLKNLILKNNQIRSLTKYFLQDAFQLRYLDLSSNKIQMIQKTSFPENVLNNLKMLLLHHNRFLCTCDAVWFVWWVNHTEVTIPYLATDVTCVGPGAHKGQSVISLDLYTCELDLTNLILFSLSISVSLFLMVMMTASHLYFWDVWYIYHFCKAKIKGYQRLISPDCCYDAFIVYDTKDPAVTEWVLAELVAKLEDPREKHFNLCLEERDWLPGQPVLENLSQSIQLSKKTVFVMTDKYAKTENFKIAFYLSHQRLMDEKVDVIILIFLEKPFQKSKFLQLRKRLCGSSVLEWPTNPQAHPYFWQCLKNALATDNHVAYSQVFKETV
In short: (§1)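 Cells (15000/well for TLR7, 20,000 for TLR8) were treated with compounds over 0.05 nM-50 μM final. After 22 h at 37° C, 5% CO2, SEAP was measured with HEK-Blue Detection reagent; percent inhibition was taken as reduction of agonist-plus-DMSO signal relative to a known inhibitor.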

human TLR8 = target: T2, human TLR8 (Homo sapiens, UniProt Q9NR97); assay: TLR8 inhibition reporter assay (HEK-Blue cells, SEAP reporter, R848 stimulation); type: cell-based; conditions: HEK-Blue cells overexpressing human TLR8, R848 15.9 μM
T2 construct: host or cells: HEK-Blue cells
T2 sequence (Q9NR97 27-1041): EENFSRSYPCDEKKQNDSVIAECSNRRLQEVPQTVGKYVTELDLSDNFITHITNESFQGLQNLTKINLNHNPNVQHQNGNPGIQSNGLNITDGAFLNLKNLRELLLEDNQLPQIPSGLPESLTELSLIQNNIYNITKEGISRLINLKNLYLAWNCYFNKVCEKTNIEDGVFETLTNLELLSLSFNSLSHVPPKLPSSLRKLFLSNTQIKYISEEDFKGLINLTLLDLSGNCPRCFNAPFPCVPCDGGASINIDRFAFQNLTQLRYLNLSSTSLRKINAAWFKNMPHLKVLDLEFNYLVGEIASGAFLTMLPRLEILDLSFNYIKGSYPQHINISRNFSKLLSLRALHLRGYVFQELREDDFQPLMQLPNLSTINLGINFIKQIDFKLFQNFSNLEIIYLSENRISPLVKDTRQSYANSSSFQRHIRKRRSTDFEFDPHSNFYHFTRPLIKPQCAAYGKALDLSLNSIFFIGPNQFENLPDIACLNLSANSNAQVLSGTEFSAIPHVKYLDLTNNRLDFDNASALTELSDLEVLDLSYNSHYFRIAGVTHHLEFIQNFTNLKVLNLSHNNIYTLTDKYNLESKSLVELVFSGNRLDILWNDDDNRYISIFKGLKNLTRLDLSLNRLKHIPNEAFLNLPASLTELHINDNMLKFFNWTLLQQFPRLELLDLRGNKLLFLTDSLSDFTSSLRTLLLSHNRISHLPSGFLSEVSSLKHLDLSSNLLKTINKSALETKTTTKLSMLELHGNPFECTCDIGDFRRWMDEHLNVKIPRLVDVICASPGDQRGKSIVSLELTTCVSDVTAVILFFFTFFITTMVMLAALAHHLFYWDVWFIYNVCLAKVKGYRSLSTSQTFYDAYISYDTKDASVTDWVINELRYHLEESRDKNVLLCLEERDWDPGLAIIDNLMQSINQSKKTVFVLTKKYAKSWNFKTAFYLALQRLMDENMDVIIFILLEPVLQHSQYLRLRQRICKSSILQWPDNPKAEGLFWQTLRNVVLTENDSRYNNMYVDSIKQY
In short: as §1

SMILES	IC50 (human TLR7) [nM]	IC50 (human TLR8) [nM]
COc1ccc(-c2[nH]c3cc(C)c(C4CCN(C5CCN(C(C)C)CC5)CC4)cc3c2C)cc1OC [Example 115, 2-(3,4-dimethoxyphenyl)-5-(1′-isopropyl-[1,4′-bipiperidin]-4-yl)-3,6-dimethyl-1H-indole-di-trifluoroacetic acid]	132	2230
CCc1c(-c2ccc(OC)c(OC)c2)[nH]c2ccc(C3CCNCC3)cc12 [Example 122, 2-(3,4-dimethoxyphenyl)-3-ethyl-5-(piperidin-4-yl)-1H-indole]	57	26
CCc1c(-c2ccc(OC)c(OC)c2)[nH]c2ccc(C3CCN(C(=O)CN4CCCC(C(=O)N(CC)CC)C4)CC3)cc12 (single isomer, unassigned) [Example 179, 1-(2-(4-(2-(3,4-dimethoxyphenyl)-3-ethyl-1H-indol-5-yl)piperidin-1-yl)-2-oxoethyl)-N,N-diethylpiperidine-3-carboxamide]	280	68
COc1ccc(-c2[nH]c3ccc(C4CCN(C(=O)CNCC#N)CC4)cc3c2C(C)C)cc1OC [Example 214, 2-((2-(4-(2-(3,4-dimethoxyphenyl)-3-isopropyl-1H-indol-5-yl)piperidin-1-yl)-2-oxoethyl)amino) acetonitrile]	21	256
CCc1c(-c2ccc(OC)c(OC)c2)[nH]c2ccc(C3CCN(C(=O)CN(C)C)CC3)cc12 [Example 181, 1-(4-(2-(3,4-dimethoxyphenyl)-3-ethyl-1H-indol-5-yl)piperidin-1-yl)-2-(dimethylamino) ethanone]	52	66
CCc1c(-c2ccc(OC)c(OC)c2)[nH]c2ccc(C3CCN(C(=O)CN4CCCC(C(=O)N(CC)CC)C4)CC3)cc12 (single isomer, unassigned) [Example 178, 1-(2-(4-(2-(3,4-dimethoxyphenyl)-3-ethyl-1H-indol-5-yl)piperidin-1-yl)-2-oxoethyl)-N,N-diethylpiperidine-3-carboxamide]	480	131
CCc1c(-c2ccc(OC)c(OC)c2)[nH]c2cc(C)c(C3CCN(CCNC)CC3)cc12 [Example 188, 2-(4-(2-(3,4-dimethoxyphenyl)-3-ethyl-6-methyl-1H-indol-5-yl)piperidin-1-yl)-N-methylethanamine-di-trifluoroacetic acid]	70	213

Reference: patent publication US11180474B2 (BRISTOL-MYERS SQUIBB COMPANY, priority 2016, dated 2021)
